The values below come from patent US7709504B2, “Use of Substituted 2-thio-3,5-dicyano-4-phenyl-6-aminopyridines in the treatment of nausea and vomiting” (Bayer Schering Pharma Aktiengesellschaft, priority 2004, dated 2010).

The experiment has as its system ferrets. As to the kind of experiment: Emetine-induced retching tests on ferrets. The experiment is classed as in vivo. To be noted: for antiemetic effect: test substance 0.3 and 3.0 mg/kg p.o. 60 min before emetine. Here is the method: Emetine-Induced Retching Tests on Ferrets:
The determination of the antiemetic action follows the method described by Gardner et al. in Brit. J. Pharmacol., 116, 3158-3163, 1995.
Sixty minutes before administration of the test substance, the ferrets were accommodated in individual stainless steel cages (40×50×34 cm) having a grid floor. The animals were then treated with emetine (2 mg/kg p.o.) and observed immediately for a period of 2 hours with a view to the following points: • number of ferrets which show signs of retching and vomiting; • latency up to initial retching (hours, minutes, seconds); • latency up to initial vomiting (hours, minutes, seconds); • retching (how often); • vomiting (how often); • number of nauseas; • average duration of the vomiting periods (minutes, seconds); • serious side effects on behavior.
Retching is defined according to the invention as a rhythmical respiratory movement against closed vocal cords, while vomiting is defined according to the invention as a forced expulsion of the higher stomach and intestinal contents.
32 ferrets were investigated. The substance tested was administered in two doses, orally sixty minutes before emetine administration, and compared to a control group. Ondansetrone (16 mg/kg p.o.) was given under the same experimental conditions and served as a reference substance.
The 32 ferrets were employed repeatedly in order to investigate 4 test substances. The administration scheme for the three-week experiment looked as follows:
The amounts were analyzed and the student's test was used in the comparison of the treated groups with the control group.
The […] data were analyzed, Fisher's exact probability test being used for the comparison of the treated groups with the control group.

Setting [1] is: ferrets given emetine 2 mg/kg p.o., vs control group.
Setting [2] is: 16 mg/kg p.o., ferrets, emetine 2 mg/kg p.o., 2 h observation.

Consider `N#Cc1c(NCCO)nc(SCc2ccccc2)c(C#N)c1-c1ccccc1` [Substance 1], for which the antiemetic effect result under setting [1] is recorded as “no significant antiemetic effect”.
For `COCCOc1ccc(-c2c(C#N)c(N)nc(SCc3cccnc3)c2C#N)cc1` [Substance 2], under setting [1], the antiemetic effect entry was “no significant antiemetic effect”.
As for `CC(=O)Nc1ccc(-c2c(C#N)c(N)nc(SCc3ccccn3)c2C#N)cc1` [Substance 3], the “prevention of emetine-induced vomiting” value (ferrets given emetine 2 mg/kg p.o., test substance in two doses orally 60 min before emetine, vs control group) is given as “significantly prevented”.
On to `Cc1nccn1CC1CCc2c(c3ccccc3n2C)C1=O` (centres unmarked) [ondansetrone, Ondansetrone, reference compound], for which, under setting [2], the “number of ferrets in which emesis was induced” value is “one of 16”; the “quantitative occurrence of retching and vomiting (induced by emetine)” value is “significantly reduced”.
